Some test systems named below: 786-0; COLO 205; DU-145; HCT-116; HOP-62; Hs-578T; IGROV-1; KM12; MDA-MB-435; MDA-N; NCI/ADR-RES; OVCAR-3; OVCAR-5; RPMI-8226; RXF 393; SF-539; SNB-19; UO-31.
Common to all, as to test: NCI tumour cell line growth inhibition, 48 h

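Exposure lasted 48 hours, with cells grown in 96-well plates and compounds tested at five concentrations. At the GI50, growth is halved.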 Calls of active or inactive are those of the source. No stated cut-off is given here; in the data, active = GI50 up to about 1.1 µM and inactive = higher.

Take `O=C(/C=C/c1cc2ccccc2o1)N1CCN(c2ccccn2)CC1`: the GI50 in the assay on 786-0 was > 100 µM (inactive); in the assay with COLO 205, 85.7 µM (inactive); with DU-145 it was > 100 µM (inactive); in the assay with HCT-116, 85.3 µM (inactive); in the assay on HOP-62 it was 97.9 µM (inactive); in the assay on Hs-578T, > 100 µM (inactive). For the same compound, the GI50 in the assay on IGROV-1 is 84.1 µM (inactive); in the assay on KM12, 87.5 µM (inactive); with MDA-MB-435, > 100 µM (inactive); in the assay with MDA-N, > 100 µM (inactive); in the assay on NCI/ADR-RES, 60.7 µM (inactive); in the assay with OVCAR-3, 62.7 µM (inactive). For the same compound, the GI50 in the assay on OVCAR-5 was > 100 µM (inactive); in the assay with RPMI-8226, > 100 µM (inactive); with RXF 393 it was > 100 µM (inactive); in the assay on SF-539, > 100 µM (inactive); with SNB-19, > 100 µM (inactive); with UO-31 it was 40.9 µM (inactive).

Turning to `O=c1[nH]/c(=C/c2ccc(OCc3ccccc3)cn2)c(=O)[nH]/c1=C/c1ccc(Cl)cc1`, the GI50 with 786-0 is 1.83 µM (inactive); in the assay on COLO 205 it was 11.9 µM (inactive); in the assay with DU-145, > 23.9 µM (inactive); with HOP-62, 1.33 µM (inactive); with Hs-578T it was 0.804 µM (active); with KM12, 0.895 µM (active). Further, the GI50 is 0.21 µM (active) in the assay on MDA-MB-435; 0.215 µM (active) in the assay on MDA-N; 5.37 µM (inactive) with NCI/ADR-RES; 0.653 µM (active) with OVCAR-3; > 100 µM (inactive) in the assay on OVCAR-5; 3.81 µM (inactive) with RPMI-8226. In addition, the GI50 in the assay with RXF 393 is 4.53 µM (inactive); in the assay with SF-539 it was 3.08 µM (inactive); in the assay with SNB-19, 5.55 µM (inactive); in the assay on UO-31 it was 2.7 µM (inactive).

For `COc1cc2nc3n(c(=O)c2cc1OC)CCCCC3`, the GI50 with 786-0, with COLO 205, in the assay with DU-145, in the assay on HCT-116, in the assay on HOP-62 and with Hs-578T was > 100 µM (inactive) each time. The GI50 in the assay on IGROV-1, with KM12, in the assay on MDA-MB-435, in the assay with MDA-N, in the assay with NCI/ADR-RES and in the assay on OVCAR-3 was > 100 µM (inactive) throughout. The GI50 in the assay on OVCAR-5 was > 100 µM (inactive); in the assay with RPMI-8226 it was 83.9 µM (inactive); in the assay with RXF 393 it was > 100 µM (inactive); in the assay on SF-539, > 10 µM (inactive); in the assay on UO-31, > 100 µM (inactive).

Consider `O=C(O)c1ccc(Nc2nc3ccc(C(F)(F)F)cc3nc2-c2ccccc2)cc1`, for which the GI50 was 37.7 µM (inactive) in the assay with 786-0; > 10 µM (inactive) in the assay on DU-145; 29.6 µM (inactive) in the assay on HCT-116; 43 µM (inactive) in the assay on HOP-62; 46.3 µM (inactive) in the assay with Hs-578T; 43.4 µM (inactive) in the assay with IGROV-1. Moreover, the GI50 with KM12 is > 10 µM (inactive); in the assay with MDA-MB-435, 34.9 µM (inactive); in the assay on MDA-N it was 47.6 µM (inactive); in the assay with NCI/ADR-RES, 28.8 µM (inactive); in the assay with OVCAR-3 it was 17.9 µM (inactive); with OVCAR-5 it was 78 µM (inactive). Further, the GI50 in the assay on RPMI-8226 is 30.1 µM (inactive); with RXF 393, 20.8 µM (inactive); in the assay on SF-539 it was 27 µM (inactive); with SNB-19 it was 52.2 µM (inactive); with UO-31, 23.9 µM (inactive).

As for `Nc1nc(Cl)cc(NCC2(O)CCC2)n1`, the GI50 in the assay with 786-0, in the assay on COLO 205, in the assay with DU-145, in the assay on HCT-116, with HOP-62 and in the assay on Hs-578T was > 100 µM (inactive) each time. In addition, the GI50 with IGROV-1, with KM12, in the assay on MDA-MB-435, in the assay with MDA-N, with NCI/ADR-RES and in the assay with OVCAR-3 was > 100 µM (inactive) each time. For the same compound, the GI50 in the assay on OVCAR-5 was > 100 µM (inactive); in the assay with RPMI-8226, > 100 µM (inactive); in the assay with RXF 393, > 100 µM (inactive); with SF-539, > 100 µM (inactive); in the assay on UO-31 it was 56.5 µM (inactive).

As for `COc1ccc(\N=C/C=C/C(=C/COC(C)=O)OC(C)=O)cc1`, the GI50 in the assay with 786-0 is 23 µM (inactive); in the assay on COLO 205, 25.4 µM (inactive); in the assay with DU-145 it was 39.4 µM (inactive); with HCT-116 it was 5.53 µM (inactive); with HOP-62 it was 51.4 µM (inactive); with Hs-578T it was 62.8 µM (inactive). In addition, the GI50 is 21.1 µM (inactive) in the assay with IGROV-1; 28.6 µM (inactive) with KM12; 18.8 µM (inactive) in the assay on MDA-MB-435; 9.38 µM (inactive) in the assay with MDA-N; 39.3 µM (inactive) in the assay on NCI/ADR-RES; 20.7 µM (inactive) in the assay on OVCAR-3. Further, the GI50 in the assay on OVCAR-5 is 40.5 µM (inactive); in the assay with RPMI-8226, 5.48 µM (inactive); in the assay with RXF 393, 21.4 µM (inactive); with SF-539 it was 35.9 µM (inactive); in the assay with SNB-19, 58.6 µM (inactive).

As to `COc1ccc(Br)c(/C=N\c2cccc3cc(OC)c(OC)cc23)c1`, the GI50 in the assay on 786-0 was 13.7 µM (inactive); in the assay on COLO 205 it was 79.3 µM (inactive); with DU-145, 52.1 µM (inactive); with HCT-116, 4.35 µM (inactive); in the assay with HOP-62, 9.64 µM (inactive); with Hs-578T it was 5.21 µM (inactive). In addition, the GI50 is 25.8 µM (inactive) in the assay on IGROV-1; 21.1 µM (inactive) in the assay on KM12; 2.8 µM (inactive) in the assay with MDA-MB-435; 3.44 µM (inactive) in the assay with MDA-N; 16.8 µM (inactive) in the assay with NCI/ADR-RES; 9.12 µM (inactive) in the assay with OVCAR-3. Moreover, the GI50 in the assay on OVCAR-5 was 72.1 µM (inactive); in the assay with RPMI-8226, 3.44 µM (inactive); in the assay on RXF 393, 39.1 µM (inactive); with SF-539, 2.64 µM (inactive); in the assay with SNB-19, 13.2 µM (inactive); in the assay with UO-31, 21.5 µM (inactive).

As to `N#Cc1c(-c2ccc(Cl)cc2)cc(-c2ccc(Nc3ccnc4cc(C(F)(F)F)ccc34)cc2)[nH]c1=O`, the GI50 in the assay with 786-0 was 12.4 µM (inactive); in the assay with COLO 205, 21 µM (inactive); in the assay on DU-145, 22.9 µM (inactive); in the assay with HCT-116 it was 4.76 µM (inactive); with HOP-62, 23.6 µM (inactive); in the assay on Hs-578T, 20 µM (inactive). Moreover, the GI50 is > 54.3 µM (inactive) in the assay with IGROV-1; 67.1 µM (inactive) in the assay with KM12; 3.33 µM (inactive) in the assay on MDA-MB-435; 3.53 µM (inactive) in the assay on MDA-N; > 100 µM (inactive) in the assay on NCI/ADR-RES; 8.26 µM (inactive) with OVCAR-3. Moreover, the GI50 in the assay with OVCAR-5 is > 40.5 µM (inactive); in the assay with RPMI-8226, 21.1 µM (inactive); in the assay on RXF 393 it was 8.93 µM (inactive); with SF-539, 6.65 µM (inactive); in the assay with SNB-19 it was 9.73 µM (inactive).

With `O=C([O-])C1([n+]2c(-c3ccccc3)cc(-c3ccccc3)cc2-c2ccccc2)CC1`, the GI50 in the assay on 786-0 was 57.1 µM (inactive); in the assay with DU-145 it was > 100 µM (inactive); with HCT-116, 41.1 µM (inactive); with HOP-62, > 100 µM (inactive); with Hs-578T, 56.8 µM (inactive); in the assay with IGROV-1, 32.8 µM (inactive). For the same compound, the GI50 in the assay on MDA-MB-435 was 19.2 µM (inactive); in the assay with MDA-N it was 53.8 µM (inactive); in the assay with NCI/ADR-RES, > 100 µM (inactive); with OVCAR-3, 38.6 µM (inactive); in the assay on OVCAR-5, > 100 µM (inactive); with RPMI-8226, 32.2 µM (inactive). Further, the GI50 was > 100 µM (inactive) in the assay with RXF 393, > 100 µM (inactive) in the assay on SF-539 and 43.2 µM (inactive) with SNB-19.

Turning to `Cn1c(=O)n2n(c1=O)C(S(=O)(=O)c1ccccc1)C2` (stereo not given), the GI50 with 786-0, in the assay on COLO 205, in the assay on DU-145, in the assay on HCT-116, in the assay with HOP-62 and in the assay with Hs-578T was > 100 µM (inactive) in each case. For the same compound, the GI50 with IGROV-1, in the assay on KM12, with MDA-MB-435, in the assay with MDA-N, in the assay on NCI/ADR-RES and with OVCAR-3 was > 100 µM (inactive) each time. Also, the GI50 in the assay with OVCAR-5, in the assay on RPMI-8226, with RXF 393, in the assay with SF-539, in the assay with SNB-19 and in the assay on UO-31 was > 100 µM (inactive) in each case.

Consider `N#Cc1sc2c(c1OC(=O)c1ccccc1)c(=O)n(-c1ccccc1)c(=S)n2-c1ccccc1`, for which the GI50 with 786-0 was 30.3 µM (inactive); in the assay with COLO 205, 16.6 µM (inactive); in the assay on DU-145, 31 µM (inactive); with HCT-116 it was 19.9 µM (inactive); in the assay with HOP-62, 18.2 µM (inactive); in the assay with Hs-578T, 14.8 µM (inactive). The GI50 is 22 µM (inactive) in the assay with IGROV-1; 19.5 µM (inactive) with KM12; 24 µM (inactive) with MDA-MB-435; 26.3 µM (inactive) with MDA-N; 21 µM (inactive) in the assay on NCI/ADR-RES; 28.1 µM (inactive) in the assay on OVCAR-3. The GI50 is 23.6 µM (inactive) in the assay on RPMI-8226; 14.3 µM (inactive) in the assay with RXF 393; 23.8 µM (inactive) in the assay with SF-539; 36.1 µM (inactive) in the assay with SNB-19; 18.3 µM (inactive) in the assay with UO-31.

Consider `CC(/C=C/C(=O)NO)=C\C(C)C(=O)c1ccc(N(C)C)cc1` (stereo not given), for which the GI50 in the assay on 786-0 is 0.0339 µM (active); in the assay on COLO 205, 0.0209 µM (active); in the assay on DU-145, 0.0176 µM (active); in the assay on HCT-116, < 0.01 µM (active); with HOP-62, 0.0391 µM (active); in the assay on Hs-578T it was < 0.01 µM (active). Moreover, the GI50 with IGROV-1 was 0.0259 µM (active); in the assay with KM12 it was 0.0256 µM (active); with MDA-MB-435, 0.0159 µM (active); in the assay with MDA-N it was 0.0287 µM (active); with NCI/ADR-RES it was < 0.01 µM (active); in the assay on OVCAR-3, 0.0119 µM (active). Further, the GI50 in the assay with OVCAR-5 was 0.114 µM (active); with RPMI-8226, < 0.01 µM (active); in the assay on RXF 393, 0.0251 µM (active); in the assay on SF-539, 0.0267 µM (active); in the assay on SNB-19, 0.0281 µM (active); in the assay with UO-31, 0.0498 µM (active).

The values are drawn from ChEMBL document CHEMBL1201862, “PubChem BioAssay data set” (2004).
